In ChEMBL document CHEMBL3832077, “DailyMed|setid=dc3d3905-2f08-4b71-b949-53f49fb3ea10 | METRONIDAZOLE- metronidazole tablet|Lake Erie Medical DBA Quality Care Products LLC”:

Tests used:
Homo sapiens = test: (§1) Evaluation of pharmacokinetic parameters for Metronidazole following oral administration of Metronidazole tablets; assay type: ADME, organism-based; design: dose 250 mg, dose 2000 mg, dose 500 mg, route oral; details: in vivo, po, dosed compound id 31, dosed compound name METRONIDAZOLE, tissue Plasma
[1] = as §1; assay type: ADME, organism-based; design: dose 250 mg, dose 2000 mg, dose 500 mg, route oral; details: human, in vivo, dosed compound id 31, dosed compound name METRONIDAZOLE, tissue Plasma

Cc1ncc([N+](=O)[O-])n1CCO [METRONIDAZOLE]
CL_renal (Homo sapiens): 10 mL/min/1.73 m2 | Tmax [1]: 1 to 2 h
